# Assay results taken from US20230295259A1 (Protagonist Therapeutics, Inc., priority 2020, published 2023).
# Starred links: 1 amine or outer side, 2 acyl side, 3 side chain; linkers in the order of their positions; H or OH if unused. Positions of bridges follow the written chain, without caps; N, C: chain ends. Non-standard residues stand in square brackets, D forms with d. Residues, ends and D or L forms follow the SMILES beside them. Groups on a side chain read outwards from the residue. ξ: configuration not given here. *: point of attachment. X11 = NCCCC[C@@H](N[*:2])C(=O)C[C@@H](CS[*:1])C(N)=O; C18 diacid = O=C(O)CCCCCCCCCCCCCCCCC(=O)*; Dip = N[C@H](C(=O)O)C(c1ccccc1)c1ccccc1; X10 = CCC(=O)CC[C@H](N[*:1])C(=O)[*:2]; X9 = O=C([C@@H](N[*:1])SC[*:3])[*:2]; Aic = NC1(C(=O)O)Cc2ccccc2C1; hLeu = CC(C)CC[C@H](N)C(=O)O; ξIle = CC[C@H](C)C(N)C(=O)O; Isovaleryl = CC(C)CC(=O)*; Dap = NC[C@H](N)C(=O)O; AEEA = NCCOCCOCC(=O)O
# Molecular target: T1, human ferroportin (Homo sapiens, UniProt Q9NP59)
# T1 construct: expressed in transfected cells
# T1 sequence (Q9NP59 1-571): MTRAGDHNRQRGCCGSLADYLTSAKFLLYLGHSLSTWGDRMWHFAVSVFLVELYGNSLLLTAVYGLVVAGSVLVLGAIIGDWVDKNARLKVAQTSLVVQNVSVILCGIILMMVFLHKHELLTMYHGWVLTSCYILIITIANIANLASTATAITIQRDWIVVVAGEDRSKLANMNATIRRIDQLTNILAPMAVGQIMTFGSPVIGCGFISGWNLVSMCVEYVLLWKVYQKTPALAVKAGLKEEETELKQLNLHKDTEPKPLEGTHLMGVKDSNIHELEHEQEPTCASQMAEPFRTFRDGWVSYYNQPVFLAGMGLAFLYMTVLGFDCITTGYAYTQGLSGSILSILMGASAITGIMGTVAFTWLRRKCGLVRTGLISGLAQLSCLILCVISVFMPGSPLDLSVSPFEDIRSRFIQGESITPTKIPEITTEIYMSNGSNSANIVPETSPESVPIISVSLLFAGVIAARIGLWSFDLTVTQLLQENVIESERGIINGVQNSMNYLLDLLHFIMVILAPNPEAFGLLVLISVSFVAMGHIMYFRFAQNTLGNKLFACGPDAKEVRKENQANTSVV
# Experiment: FPN activity assay: internalization/degradation of ferroportin-GFP in stably transfected HEK293 cells (decrease in GFP fluorescence)
# Assay type: cell-based
# Conditions: Table 2A; HEK293 cells expressing human ferroportin-GFP, at least 18 hours incubation
# Experimental: Following internalization, the ferroportin protein is degraded.
# A retro inverse peptide is a peptide with a reversed sequence in all D amino acids. An example is that Hy-Glu-Thr-His-NH2 becomes Hy-DHis-DThr-DGlu-NH2. The EC50 of these reference compounds for ferroportin internalization/degradation was determined according to the FPN activity assay described above. These peptides served as control standards.
# These values were determined as described herein.
row,EC50 [µM],Compound
1,> 3,Isovaleric Acid-E-T-H-[Dpa]-P-[Cys]-I-[Lys(Ac)]-[bhPhe]-[Lys(2Peg20K)]-R-[Cys]-NH2 [Compound 46]

# Same assay, conditions: Table 2B; HEK293 cells expressing human ferroportin-GFP, at least 18 hours incubation
row,EC50 [µM],Compound
1,1.78,Isovaleric Acid-E-T-H-[Dpa]-P—C—I-[Lys(PEG12_Palm)]-[bhPhe]-[Lys(PEG40KB)]-R—C—NH2 [Compound 295]
2,1.36,Isovaleric Acid-E-T-H-[Dpa]-P—C—I-[Lys(1PEG2_1PEG2_Ahx_C18_Diacid)]-[bhPhe]-[(D)Lys(PEG40KB-C—NH2 [Compound 297]

# Same assay, conditions: Table 2D (Illustrative Monomer Hepcidin Analogues); ferroportin-GFP HEK293 cells; read-out: IC50: FPN internalisation
row,DC50 [µM],Compound
1,0.0206,CCC(=O)CC[C@H](NC(=O)CC(C)C)C(=O)N[C@H](C(=O)N[C@@H](Cc1cnc[nH]1)C(=O)N[C@H](C(=O)N1CCC[C@H]1C(=O)N[C@H]1CSSC[C@@H](C(N)=O)CC(=O)[C@@H](CCCCN)NC(=O)[C@H](CCC(C)C)NC(=O)[C@H](CCCCNC(=O)COCCOCCNC(=O)COCCOCCNC(=O)[C@H](CN)NC(=O)CCCCCCCCCCCCCCCCC(=O)O)NC(=O)[C@H]([C@@H](C)CC)NC1=O)C(c1ccccc1)c1ccccc1)[C@@H](C)O [Compound 509] (Isovaleryl-[X10]TH[Dip]PCIK([AEEA-AEEA-Dap-C18 diacid])[hLeu]; linker 6-C via X11)
2,0.0313,CC[C@H](C)C1NC(=O)[C@@H](NC(=O)[C@@H]2CCCN2C(=O)[C@@H](NC(=O)[C@H](Cc2cnc[nH]2)NC(=O)[C@@H](NC(=O)[C@H](CCC(=O)OC)NC(=O)CC(C)C)[C@@H](C)O)C(c2ccccc2)c2ccccc2)SCSC[C@@H](C(N)=O)NC(=O)[C@@H](CCCCN)NC(=O)C2(Cc3ccccc3C2)NC(=O)[C@H](CCCCNC(=O)COCCOCCNC(=O)COCCOCCNC(=O)[C@H](CN)NC(=O)CCCCCCCCCCCCCCCCC(=O)O)NC1=O (stereo partly shown) [Compound 506] (Isovaleryl-E(OMe)TH[Dip]P[X9][ξIle]K([AEEA-AEEA-Dap-C18 diacid])[Aic][dK]C-NH2; thioether 6-11)

# Test system: LAD2 cells
# Experiment: not given
# Assay type: cell-based, human
# Conditions: not given
# Excerpt: In anaphylactoid reactions, the main mechanism involves the direct stimulation of mast cells or basophils, leading to the release of anaphylactic mediators such as histamine and β-hexosaminidase. A recent study by McNeil et al. (McNeil B D et al., 2015) reported that MrgprX2, a specific membrane receptor on human mast cells, induces anaphylactoid reactions. The LAD2 (Laboratory of Allergic Diseases 2) human mast cell line, derived from human mast cell sarcoma/leukemia (Kirshenbaum et al., 2003), is commonly employed to study anaphylactoid reactions, because its biological properties are identical to those of primary human mast cells, including the overexpression of the MrgprX2 receptor and sensitivity towards degranulating peptides (Kulka et al., 2008). The release of anaphylactic mediators such as f-hexosaminidase, is assessed by fluorometric quantification.
# On the day of the assay, serial dilutions of compounds were added to LAD2 cells plated at 20000 cells/well in a 96-well plate. After incubation for 30 minutes, the amount of β-hexosaminidase released into the supernatants and in cell lysates was quantified using the fluorogenic substrate 4-methylumbelliferyl-N-acetyl-b-D-glucosaminide. Dose-response curves were generated by plotting the % of β-hexosaminidase release (y-axis) against the concentrations of peptides tested (x-axis). […]. (Table 2D).
row,EC50 [µM],Compound
1,> 100,"CCCCCCCCCCCCCCCC(=O)NCCCCCC(=O)NCCCC[C@@H]1NC(=O)C[C@H](Cc2ccccc2)NC(=O)[C@@H](CCCCNC(=O)CCOCCOCCOCCOCCOCCOCCOCCOCCOCCOCCOCCOC)NC(=O)[C@H](C(C)CC)NC(=O)C(NC(=O)[C@@H]2CCCN2C(=O)[C@@H](NC(=O)[C@H](Cc2cnc[nH]2)NC(=O)[C@@H](NC(=O)[C@H](CCC(=O)O)NC(=O)CC(C)C)[C@@H](C)O)C(c2ccccc2)c2ccccc2)CSSC[C@@H](C(N)=O)NC(=O)[C@@H](CCCCNC(=O)CCOCCOCCOCCOCCOCCOCCOCCOCCOCCOCCOCCOC)NC1=O (stereo partly shown) [Compound 19, Isovaleric Acid-E-T-H-[Dpa]-P-[Cys]-I-[(D)Lys(2Peg11′_OMe)]-[bhPhe]-[Lys(Ahx_Palm)]-[(D)Lys(2Peg11′_OMe)]-[Cys]-NH2]"
2,> 33,"CC[C@H](C)[C@@H]1NC(=O)[C@@H](NC(=O)[C@@H]2CCCN2C(=O)[C@@H](NC(=O)[C@H](Cc2cnc[nH]2)NC(=O)[C@@H](NC(=O)[C@H](CCC(=O)O)NC(=O)CC(C)C)[C@@H](C)O)C(c2ccccc2)c2ccccc2)CSSC[C@@H](C(N)=O)NC(=O)[C@@H](CCCCN)NC(=O)C[C@H](Cc2ccccc2)NC(=O)[C@H](CCCCNC(=O)COCCOCCNC(=O)COCCOCCNC(=O)CC[C@H](NC(=O)CCCCCCCCCCCCCCCCC(=O)O)C(=O)O)NC1=O [Compound 107, Isovaleric Acid-E-T-H-[Dpa]-P-[Cys]-I-[Lys(1Peg2_1Peg2_IsoGlu_C18_Diacid)]-[bhPhe]-[(D)Lys]-[Cys]-NH2]"
3,27,"CC[C@H](C)C1NC(=O)[C@@H](NC(=O)[C@@H]2CCCN2C(=O)[C@@H](NC(=O)[C@H](Cc2cnc[nH]2)NC(=O)[C@@H](NC(=O)[C@H](CCC(=O)O)NC(=O)CC(C)C)[C@@H](C)O)C(c2ccccc2)c2ccccc2)CSSC[C@@H](C(N)=O)NC(=O)[C@@H](CCCCN)NC(=O)C[C@H](Cc2ccccc2)CC(=O)C(CCCCNC(=O)CCOCCOCCOCCOCCOCCOCCOCCOCCOCCOCCOCCOCCNC(=O)CCCCCCCCCCCCCCCCC(=O)O)NC1=O (stereo partly shown) [Compound 113, Isovaleric Acid-E-T-H-[Dpa]-P-[Cys]-I-[Lys(2Peg11′_C18_Diacid)]-[bhPhe]-[(D)Lys]-[Cys]-NH2]"
4,> 100,"CC[C@H](C)[C@@H]1NC(=O)[C@@H](NC(=O)[C@@H]2CCCN2C(=O)[C@@H](NC(=O)[C@H](Cc2cnc[nH]2)NC(=O)[C@@H](NC(=O)[C@H](CCC(=O)O)NC(=O)CC(C)C)[C@@H](C)O)C(c2ccccc2)c2ccccc2)CSSC[C@@H](C(N)=O)NC(=O)[C@@H](CCCCNC(=O)CCOCCOCCOCCOCCOCCOCCOCCOC)NC(=O)C[C@H](Cc2ccccc2)NC(=O)[C@H](CCCCNC(=O)COCCOCCNC(=O)COCCOCCNC(=O)CCCCCNC(=O)CCCCCCCCCCCCCCCCC(=O)O)NC1=O [Compound 256, Isovaleric Acid-E-T-H-[Dpa]-P—C—I-[Lys(1PEG2_1PEG2_Ahx_C18_Diacid)]-[bhPhe]-[(D)Lys(PEG7_OMe)]—C—NH2]"

# Same assay, conditions: LAD2 mast cells, β-hexosaminidase release, 30 minutes incubation; read-out: EC50: LAD2
row,Compound,EC50 [µM]
1,Isovaleric Acid-E-T-H-[Dpa]-P—C—I-[Lys(PEG12_IsoGlu_C18_Diacid)]-[bhPhe]-[(D)Lys(PEG11_OMe)]—C—NH2 [Compound 292],> 100
2,Isovaleric Acid-E-T-H-[Dpa]-P—C—I-[Lys(1PEG8_IsoGlu_C18_Diacid)]-[bhPhe]-[(D)Lys]-C—NH2 [Compound 238],> 100
3,Isovaleric Acid-E-T-H-[Dpa]-P—C—I-[Lys(1PEG2_1PEG2_IsoGlu_C14_Diacid)]-[bhPhe]-[(D)Lys]-C—NH2 [Compound 233],> 100
4,Isovaleric Acid-E-T-H—F—P—C—I-[Lys(Ahx_Palm)]-F-E-P—R—S—K-G-C—K—NH2 [Compound 223],0.7
5,Isovaleric Acid-E-T-H-[Dpa]-P—C—I-[Lys(PEG12_C18_Diacid)]-[bhPhe]-[(D)Lys(PEG11_OMe)]—C—NH2 [Compound 293],> 100
6,Isovaleric Acid-E-T-H-F—P—C—I-[Lys(IsoGlu_Palm)]-F-E-P—R-S—K-G-C—NH2 [Compound 225],4.8
7,Isovaleric Acid-E-T-H-[Dpa]-P—C—I-[Lys(PEG12_C16_Diacid)]-[bhPhe]-[(D)Lys]-C—NH2 [Compound 265],23.1
8,Isovaleric Acid-E-T-H—F—P—C—I-[Lys(IsoGlu_Palm)]-F-E-P—R-S-G-C—NH2 [Compound 226],15.7
9,Isovaleric Acid-E-T-H-[Dpa]-P—C—I-[Lys(1PEG2_1PEG2_Ahx_C18_Diacid)]-[bhPhe]-[(D)Lys]-[Pen]-NH2 [Compound 280],24.3
10,Isovaleric Acid-E-T-H-[Dpa]-P—C—I-[Lys(1PEG2_1PEG2_IsoGlu_C16_Diacid)]-[bhPhe]-[(D)Lys]-C—NH2 [Compound 232],> 100
11,Isovaleric Acid-E-T-H-[Dpa]-P—C—I-[Lys(PEG4_IsoGlu_C18_Diacid)]-[bhF]-[(D)Lys]-C—NH2 [Compound 239],> 100
12,Isovaleric Acid-E-T-H—F—P—C—I-[Lys(1PEG2_1PEG2_IsoGlu_C18_Diacid)]-F-E-P—R—S—K-G-C—K—NH2 [Compound 220],> 33
13,Isovaleric Acid-E-T-H-[Dpa]-P—C—I-[Lys(1PEG2_1PEG2_1PEG2_C18_Diacid)]-[bhPhe]-[(D)Lys]-C—NH2 [Compound 254],> 33
14,Isovaleric Acid-E-T-H—F—P—C—I-[Lys(IsoGlu_C18_Diacid)]-F-E-P—R—S—K-G-C—K—NH2 [Compound 222],> 100
15,Isovaleric Acid-E-T-H-[Dpa]-P-[Cys]-I-[Lys(2Peg11′_IsoGlu_C18)]-[bhPhe]-[(D)Lys]-[Cys]-NH2 [Compound 112],0.52
16,Isovaleric Acid-E-T-H—F—P—C—I-[Lys(1PEG2_1PEG2_Ahx_C18_Diacid)]-F-E-P—R—S—K-G-C—K—NH2 [Compound 221],> 100
17,Isovaleric Acid-[Glu_OMe]-T-H-[Dpa]-P—C—I-[Lys(1PEG2_1PEG2_Ahx_C18_Diacid)]-[bhPhe]-[(D)Lys]-C—NH2 [Compound 277],11.7
18,Isovaleric Acid-E-T-H-[Dpa]-P—C—I-[Lys(1PEG2_1PEG2_IsoGlu_C12_Diacid)]-[bhPhe]-[(D)Lys]-C—NH2 [Compound 234],> 100
19,Isovaleric Acid-E-T-H-[Dpa]-P—C—I-[Lys(PEG12_IsoGlu_Palm)]-[bhPhe]-[(D)Lys(PEG11_OMe)]—C—NH2 [Compound 291],> 100
